Test [1] concerns the target Recombinant human Syk (amino acids 342-635), GST-Syk kinase fusion protein (Homo sapiens (Human), UniProt P43405). Briefly: Syk Kinase Test (Kinase Glo Luminescence Kinase test). A general note: In Kinase-Glo more light means more ATP remaining.
Procedure: The catalytic activity of the GST-Syk kinase fusion protein was determined using the Kinase Glo® Luminescence Kinase test (Promega; V6712). In this homogeneous test the amount of ATP remaining after the kinase reaction is quantified by a luciferin-luciferase reaction using luminescence. The luminescence signal obtained correlates with the amount of ATP still present and thus correlates inversely with the activity of the protein kinase.
GST-Syk was diluted to 6.0 nM in the test buffer and 10 μl of this dilution were used in the kinase test (final concentration of Syk=4 nM in a total volume of 15 μl).
Positive controls are the reaction mixtures that contain no test substance; negative controls (blanks) are reaction mixtures that contain no kinase.
After 60 minutes, 10 μl Kinase-Glo® solution (Promega, Cat. #V6712) (heated to room temperature) were added to each well and incubation was continued for a further 15 minutes. The plates were read in a Microplate Scintillation and Luminescence Counter (Canberra Packard GmbH).
Data Evaluation and Calculation:
The output file of the “Counter” is a text file that contains the well number and measured counts in two columns. […] Based on this values the % inherent value for the measurement of each substance concentration was calculated using an “MS-Excel-VB macro”. […] The IC50 values were calculated from the % inhibition values using “GraphPadPrism” software (Version 5) (GraphPad Software Inc.).
The test system of test [2] is patients with ITP. The following applies: single center open label study; cited from earlier work.
The mark [3] stands for this setting: read-out: IC50-value (+0.2% HSA in μM), +0.2% HSA.

Structures are written as SMILES. Like-named read-outs stand apart in the source and are kept apart here.

Usually IC50 stands for the concentration that inhibits the measured activity by half. For the molecule `COc1cc(-c2cc(O[C@H](C)[C@H]3CNC(=O)C3)c3cccnc3c2)ccc1C(F)(F)F` [Example 102, (R)-4-((R)-1-(7-(3-methoxy-4-(trifluoromethyl)phenyl)quinolin-5-yloxy)ethyl)pyrrolidin-2-one], in test [1] (setting [3]), the IC50 came out at 0.0045 µM.
Take `Cc1nc2cc(-c3cc(O[C@H](C)[C@H]4CNC(=O)C4)c4cccnc4c3)ccc2n1C` [Example 105, (R)-4-((R)-1-(7-(1,2-dimethyl-1H-benzo[d]imidazol-5-yl)quinolin-5-yloxy)ethyl)pyrrolidin-2-one]: the IC50 in test [1] (setting [3]) was determined as 0.0002 µM.
Regarding `C[C@@H](Oc1cc(-c2ccc3c(c2)ncn3C)cc2ncccc12)[C@H]1CNC(=O)C1` [Example 94, (R)-4-((R)-1-(7-(1-methyl-1H-benzo[d]imidazol-5-yl)quinolin-5-yloxy)ethyl)pyrrolidin-2-one], the IC50 in test [1] (setting [3]) stood at 0.0003 µM.
As to `C[C@@H](Oc1cc(-c2ccccn2)cc2ncccc12)[C@H]1CNC(=O)C1` [Example 6, (R)-4-((R)-1-(7-(pyridin-2-yl)quinolin-5-yloxy)ethyl)pyrrolidin-2-one], the IC50 in test [1] (read-out: IC50-value (+0.2% BSA in μM), +0.2% BSA) came to 0.0017 µM.
For the molecule `Cc1nc2ccc(-c3cc(O[C@H](C)[C@H]4CNC(=O)C4)c4cccnc4c3)cc2s1` [Example 85, (R)-4-((R)-1-(7-(2-methylbenzo[d]thiazol-6-yl)quinolin-5-yloxy)ethyl)pyrrolidin-2-one], the half-maximal inhibitory concentration (IC50) in test [1] (setting [3]) stood at 0.0002 µM.
For `Cc1nc2cc(-c3cc(O[C@H](C)[C@H]4CNC(=O)C4)c4cccnc4c3)ccc2[nH]1` [Example 109, (R)-4-((R)-1-(7-(2-methyl-1H-benzo[d]imidazol-5-yl)quinolin-5-yloxy)ethyl)pyrrolidin-2-one], in test [1] (setting [3]), the half-inhibitory concentration (IC50) came to 0.0004 µM.
With `C[C@@H](Oc1cc(-c2ccc3c(c2)CNCC3)cc2ncccc12)[C@H]1CNC(=O)C1` [Example 101, (R)-4-((R)-1-(7-(1,2,3,4-tetrahydroisoquinolin-7-yl)quinolin-5-yloxy)ethyl)pyrrolidin-2-one], the half-inhibitory concentration (IC50) in test [1] (setting [3]) came to 0.0004 µM.
As to `Cc1c(-c2cc(O[C@H](C)[C@H]3CNC(=O)C3)c3cccnc3c2)cnn1C` [Example 112, (R)-4-((R)-1-(7-(1,5-dimethyl-1H-pyrazol-4-yl)quinolin-5-yloxy)ethyl)pyrrolidin-2-one], in test [1] (setting [3]), the IC50 is 0.0012 µM.
As to `COc1cc(Nc2ncc(F)c(Nc3ccc4c(n3)N(COP(=O)(O)O)C(=O)C(C)(C)O4)n2)cc(OC)c1OC` [Example R788], the platelet counts result in test [2] is reported as “improved platelet counts”.

These data come from US8912173B2, “Substituted quinolines and their use as medicaments” (Boehringer Ingelheim International GmbH, priority 2011, dated 2014).
